From patent publication US20240285737A1, “IMPROVED METHODS OF TREATMENT USING IMMUNOGENIC PEPTIDES” (IMCYSE SA, priority 2021, published 2024)

Tested on: proinsulin epitope C20-A1-specific CD4+ T cells
Experiment: FACS quantification of CD4+ T cells responding to proinsulin epitope C20-A1 stimulation in PBMCs of T1D patients treated with IMP or placebo
Type: in vivo, human
Conditions: visits 3 to 6 (impact of administrations 3 to 6)
Experimental: 84 HLA DR4+ adult participants are randomly assigned (1:1:1) to one of the three treatment arms: placebo, investigational medicinal product (IMP) 450 μg and IMP 1350 μg (=the main study). All participants receive 6 administrations of IMP or placebo with a 2-week interval between each administration. At 24 weeks participants receive a boost injection. While treated participants receive a boost administration equivalent to the dose they have been randomized to, placebo participants receive a placebo boost. The participants were followed up to 48 weeks (FIG. 1).
Treatment consists of six administrations (separated by 14 days) of the IMP or the placebo by SC route. […]
Patient blood samples collected at six time points (visit V-1 or the baseline which was prior to immunization, and visits V2 to V6 which were two weeks after 2, 3, 4, 5 or 6 injections respectively) was used to quantify CD4+ T cells responding to proinsulin epitope C20-A1 stimulation. […]
Fluorescent activated cell sorting (FACS) analysis was performed to quantify CD4+ T cells that respond to proinsulin epitope stimulation. […] In a proinsulin epitope C20-A1-stimulated sample, the “net % of responding CD4+ T cells” was calculated as the % of CD4+ T cells with an effector or regulatory phenotype in the stimulated sample minus the % of CD4+ T cells with effector or regulatory phenotype in the corresponding unstimulated sample. […]

HCPYCSLQPLALEGSLQKRG [IMP] was tested, and the “net % of responding CD4+ T cells in IMP treated as compared to Placebo treated patients at individual time points” value was “trend of greater net % of responding CD4+ T cells”.
